{
  "source": "patent US7220784B2",
  "about": "“Substituted stilbenes and their reactions” (priority 2000, dated 2007)",
  "key": {"[1]": {"system": "H460 human lung xenograft", "experiment": "Tumour damage in H460 human lung xenograft grown subcutaneously", "type": "in vivo", "settings": "0.75×MTD, i.p., twenty four hours following injection", "procedure": "The effect of compounds 97–64H and 97–96 (quinone compound) was tested on H460 human lung xenograft grown subcutaneously by injecting equitoxic doses of the compounds (0.75×MTD)."}, "[2]": {"system": "H460 human lung cancer xenografts", "experiment": "Anti-tumour efficacy in xenografts of H460 human lung cancer", "type": "in vivo, mice", "settings": "H460 human lung cancer xenograft", "procedure": "(2) Competition for the colchicine binding site on tubulin. The figure quoted represents the % of ^3H-colchicine bound following co-incubation of test compound and ^3H-cochicine with isolated tubulin. Where ester pro-drugs were used the experiments were carried out in the presence and absence of porcine liver esterase. • (3) Cytotoxicity/growth inhibition assay. This was carried out by the MTT assay. • (4) Permeability (shape-change) assay in endothelial cells. This was carried out using a method based on that of Watts et al. (Anticancer Res., 17, 71–75, (1997)). This involved the diffusion of a fluorescently labelled dextran through a barrier of endothelial cells (HUVEC) grown to confluence on a porous membrane. […] The anti-vascular effects of the agents were monitored by either positron emission tomography (PET) or by histologogical examination following treatment of mice bearing T50:80 murine breast tumours, or H460 human lung tumours. • (6) Anti-tumour efficacy of agents was determined in xenografts of H460 human lung cancer. Animals (n=5) were trated either with 5 daily injections and tumour size measured with time following treatment. • (7) The pharmacokinetic profile of agents was determined in mice following injection with drug. Blood was taken at various times following treatment and analysed by HPLC with UV detection. […]"}, "[3]": {"system": "colchicine binding site on tubulin", "experiment": "Competition for the colchicine binding site on tubulin; also: test concentration or dose not given here"}, "[4]": {"experiment": "Photoisomerisation of trans-CA-4 ex situ, composition of mixture (GC)", "type": "physicochemical"}, "[5]": {"settings": "GC, benzene, 400 W Hg lamp, 0 mins (Table 3)"}, "[6]": {"settings": "GC, benzene, 400 W Hg lamp, 0.5 mins (Table 3)"}, "[7]": {"settings": "GC, benzene, 400 W Hg lamp, 1.5 mins (Table 3)"}, "[8]": {"settings": "GC, benzene, 400 W Hg lamp, 3.0 mins (Table 3)"}, "[9]": {"settings": "GC, benzene, 400 W Hg lamp, 5.0 mins (Table 3)"}, "[10]": {"settings": "GC, benzene, 400 W Hg lamp, 6.5 mins (Table 3)"}, "[11]": {"settings": "GC, benzene, 400 W Hg lamp, 8.0 mins (Table 3)"}, "[12]": {"settings": "GC, benzene, 400 W Hg lamp, 10.0 mins (Table 3)"}, "[13]": {"settings": "GC, benzene, 400 W Hg lamp, 12.5 mins (Table 3)"}, "[14]": {"settings": "GC, benzene, 400 W Hg lamp, 15.0 mins (Table 3)"}, "[15]": {"settings": "GC, benzene, 400 W Hg lamp, 17.5 mins (Table 3)"}, "[16]": {"settings": "GC, benzene, 400 W Hg lamp, 20.0 mins (Table 3)"}, "[17]": {"settings": "photoisomerisation ex situ, 0 mins (Table 5)"}, "[18]": {"settings": "photoisomerisation ex situ, 0.5 mins (Table 5)"}, "[19]": {"settings": "photoisomerisation ex situ, 1.0 mins (Table 5)"}, "[20]": {"settings": "photoisomerisation ex situ, 1.5 mins (Table 5)"}, "[21]": {"settings": "photoisomerisation ex situ, 2.0 mins (Table 5)"}, "[22]": {"settings": "photoisomerisation ex situ, 3.0 mins (Table 5)"}, "[23]": {"settings": "photoisomerisation ex situ, 4.0 mins (Table 5)"}, "[24]": {"settings": "photoisomerisation ex situ, 5.0 mins (Table 5)"}, "[25]": {"settings": "photoisomerisation ex situ, 7.5 mins (Table 5)"}, "[26]": {"settings": "photoisomerisation ex situ, 10.0 mins (Table 5)"}, "[27]": {"settings": "photoisomerisation ex situ, 12.5 mins (Table 5)"}, "[28]": {"settings": "photoisomerisation ex situ, 15.0 mins (Table 5)"}, "[29]": {"settings": "photoisomerisation ex situ, 17.5 mins (Table 5)"}, "[30]": {"settings": "photoisomerisation ex situ, 20.0 mins (Table 5)"}},
  "note": "“And” between values parts separate entries of the source, which are not always exact repeats. Identical values can stand only once.",
  "data": [
    {"smiles": "COc1ccc(C=Cc2cc(OC)c(OC)c(OC)c2)cc1F", "note": "[Compound 97-64H]", "values": [
      {"measurement": "tumour damage", "setting": "[1]", "result": "extensive damage to the tumours"},
      {"measurement": "anti-tumour activity in vivo", "setting": "[2]", "result": "shows anti-tumour activity in vivo"},
      {"measurement": "Colchicine % Inhibition", "setting": "[3]", "result": "79% and 70%"}
    ]},
    {"smiles": "COc1ccc(/C=C/c2cc(OC)c(OC)c(OC)c2)cc1O", "note": "[trans-CA-4, trans-combretastatin A-4]", "values": [
      {"measurement": "% cis-stilbene", "setting": "[4]; [5]", "result": 0, "unit": "%"},
      {"measurement": "% phenanthrene", "setting": "[4]; [5]", "result": 0, "unit": "%"},
      {"measurement": "% trans-stilbene", "setting": "[4]; [5]", "result": 100, "unit": "%"},
      {"measurement": "% cis-stilbene", "setting": "[4]; [6]", "result": 0, "unit": "%"},
      {"measurement": "% phenanthrene", "setting": "[4]; [6]", "result": 0, "unit": "%"},
      {"measurement": "% trans-stilbene", "setting": "[4]; [6]", "result": 100, "unit": "%"},
      {"measurement": "% cis-stilbene", "setting": "[4]; [7]", "result": 0, "unit": "%"},
      {"measurement": "% phenanthrene", "setting": "[4]; [7]", "result": 0, "unit": "%"},
      {"measurement": "% trans-stilbene", "setting": "[4]; [7]", "result": 100, "unit": "%"},
      {"measurement": "% cis-stilbene", "setting": "[4]; [8]", "result": 13, "unit": "%"},
      {"measurement": "% phenanthrene", "setting": "[4]; [8]", "result": 0, "unit": "%"},
      {"measurement": "% trans-stilbene", "setting": "[4]; [8]", "result": 87, "unit": "%"},
      {"measurement": "% cis-stilbene", "setting": "[4]; [9]", "result": 31, "unit": "%"},
      {"measurement": "% phenanthrene", "setting": "[4]; [9]", "result": 0, "unit": "%"},
      {"measurement": "% trans-stilbene", "setting": "[4]; [9]", "result": 69, "unit": "%"},
      {"measurement": "% cis-stilbene", "setting": "[4]; [10]", "result": 45, "unit": "%"},
      {"measurement": "% phenanthrene", "setting": "[4]; [10]", "result": 0, "unit": "%"},
      {"measurement": "% trans-stilbene", "setting": "[4]; [10]", "result": 55, "unit": "%"},
      {"measurement": "% cis-stilbene", "setting": "[4]; [11]", "result": 47, "unit": "%"},
      {"measurement": "% phenanthrene", "setting": "[4]; [11]", "result": 0, "unit": "%"},
      {"measurement": "% trans-stilbene", "setting": "[4]; [11]", "result": 53, "unit": "%"},
      {"measurement": "% cis-stilbene", "setting": "[4]; [12]", "result": 53, "unit": "%"},
      {"measurement": "% phenanthrene", "setting": "[4]; [12]", "result": 0, "unit": "%"},
      {"measurement": "% trans-stilbene", "setting": "[4]; [12]", "result": 44, "unit": "%"},
      {"measurement": "% cis-stilbene", "setting": "[4]; [13]", "result": 68, "unit": "%"},
      {"measurement": "% phenanthrene", "setting": "[4]; [13]", "result": 0, "unit": "%"},
      {"measurement": "% trans-stilbene", "setting": "[4]; [13]", "result": 32, "unit": "%"},
      {"measurement": "% cis-stilbene", "setting": "[4]; [14]", "result": 71, "unit": "%"},
      {"measurement": "% phenanthrene", "setting": "[4]; [14]", "result": 0, "unit": "%"},
      {"measurement": "% trans-stilbene", "setting": "[4]; [14]", "result": 29, "unit": "%"},
      {"measurement": "% cis-stilbene", "setting": "[4]; [15]", "result": 74, "unit": "%"},
      {"measurement": "% phenanthrene", "setting": "[4]; [15]", "result": 4, "unit": "%"},
      {"measurement": "% trans-stilbene", "setting": "[4]; [15]", "result": 22, "unit": "%"},
      {"measurement": "% cis-stilbene", "setting": "[4]; [16]", "result": 73, "unit": "%"},
      {"measurement": "% phenanthrene", "setting": "[4]; [16]", "result": 4, "unit": "%"},
      {"measurement": "% trans-stilbene", "setting": "[4]; [16]", "result": 23, "unit": "%"},
      {"measurement": "% cis", "setting": "[4]; [17]", "result": 0.3, "unit": "%"},
      {"measurement": "% phenanthrene", "setting": "[4]; [17]", "result": 0, "unit": "%"},
      {"measurement": "% trans", "setting": "[4]; [17]", "result": 99.7, "unit": "%"},
      {"measurement": "% cis", "setting": "[4]; [18]", "result": 2.0, "unit": "%"},
      {"measurement": "% phenanthrene", "setting": "[4]; [18]", "result": 0, "unit": "%"},
      {"measurement": "% trans", "setting": "[4]; [18]", "result": 98.0, "unit": "%"},
      {"measurement": "% cis", "setting": "[4]; [19]", "result": 3.9, "unit": "%"},
      {"measurement": "% phenanthrene", "setting": "[4]; [19]", "result": 0, "unit": "%"},
      {"measurement": "% trans", "setting": "[4]; [19]", "result": 96.1, "unit": "%"},
      {"measurement": "% cis", "setting": "[4]; [20]", "result": 6.3, "unit": "%"},
      {"measurement": "% phenanthrene", "setting": "[4]; [20]", "result": 0, "unit": "%"},
      {"measurement": "% trans", "setting": "[4]; [20]", "result": 93.7, "unit": "%"},
      {"measurement": "% cis", "setting": "[4]; [21]", "result": 7.3, "unit": "%"},
      {"measurement": "% phenanthrene", "setting": "[4]; [21]", "result": 0, "unit": "%"},
      {"measurement": "% trans", "setting": "[4]; [21]", "result": 92.7, "unit": "%"},
      {"measurement": "% cis", "setting": "[4]; [22]", "result": 25.7, "unit": "%"},
      {"measurement": "% phenanthrene", "setting": "[4]; [22]", "result": 0, "unit": "%"},
      {"measurement": "% trans", "setting": "[4]; [22]", "result": 74.3, "unit": "%"},
      {"measurement": "% cis", "setting": "[4]; [23]", "result": 37.3, "unit": "%"},
      {"measurement": "% phenanthrene", "setting": "[4]; [23]", "result": 0, "unit": "%"},
      {"measurement": "% trans", "setting": "[4]; [23]", "result": 62.3, "unit": "%"},
      {"measurement": "% cis", "setting": "[4]; [24]", "result": 47.9, "unit": "%"},
      {"measurement": "% phenanthrene", "setting": "[4]; [24]", "result": 0, "unit": "%"},
      {"measurement": "% trans", "setting": "[4]; [24]", "result": 52.1, "unit": "%"},
      {"measurement": "% cis", "setting": "[4]; [25]", "result": 56.6, "unit": "%"},
      {"measurement": "% phenanthrene", "setting": "[4]; [25]", "result": 1.4, "unit": "%"},
      {"measurement": "% trans", "setting": "[4]; [25]", "result": 40.2, "unit": "%"},
      {"measurement": "% cis", "setting": "[4]; [26]", "result": 63.1, "unit": "%"},
      {"measurement": "% phenanthrene", "setting": "[4]; [26]", "result": 2.9, "unit": "%"},
      {"measurement": "% trans", "setting": "[4]; [26]", "result": 34.0, "unit": "%"},
      {"measurement": "% cis", "setting": "[4]; [27]", "result": 64.4, "unit": "%"},
      {"measurement": "% phenanthrene", "setting": "[4]; [27]", "result": 3.4, "unit": "%"},
      {"measurement": "% trans", "setting": "[4]; [27]", "result": 32.2, "unit": "%"},
      {"measurement": "% cis", "setting": "[4]; [28]", "result": 64.6, "unit": "%"},
      {"measurement": "% phenanthrene", "setting": "[4]; [28]", "result": 3.7, "unit": "%"},
      {"measurement": "% trans", "setting": "[4]; [28]", "result": 31.7, "unit": "%"},
      {"measurement": "% cis", "setting": "[4]; [29]", "result": 65.1, "unit": "%"},
      {"measurement": "% phenanthrene", "setting": "[4]; [29]", "result": 4.1, "unit": "%"},
      {"measurement": "% trans", "setting": "[4]; [29]", "result": 30.8, "unit": "%"},
      {"measurement": "% cis", "setting": "[4]; [30]", "result": 65.7, "unit": "%"},
      {"measurement": "% phenanthrene", "setting": "[4]; [30]", "result": 3.7, "unit": "%"},
      {"measurement": "% trans", "setting": "[4]; [30]", "result": 30.6, "unit": "%"}
    ]}
  ]
}
